# Experimental data as given in publication PMC11455950, “Effects of SZV-2649, a new multiple ion channel inhibitor mexiletine analogue” (Scientific Reports, 2024).
# What was measured:
# [1] = system: dog Purkinje fiber preparations; test: Conventional microelectrode action potential recording, dog Purkinje fibers; settings: CL = 500 ms, n = 10
# Experimental: The effects of SZV-2649 on action potentials were studied in dog ventricular, atrial and Purkinje fiber preparations.
# Action potentials were recorded in cardiac ventricular trabeculae and papillary muscle preparations obtained from the right ventricles of Beagle dogs (10–15 kg) of either sex using the conventional microelectrode technique. Dogs were sacrificed by iv. sedation with xylazine (1 mg/kg), followed by i.v. administration of 50 mg/kg pentobarbital. After the cornea reflex disapeared the chest was opened, and the heart was rapidly removed. The heart was immediately rinsed in oxygenated modified Locke’s solution containing (in mM): NaCl 128.3, KCl 4, CaCl2 1.8, MgCl2 0.42, NaHCO3 21.4, and glucose 10. The pH of this solution was set between 7.35 and 7.4 when gassed with the mixture of 95% O2 and 5% CO2 at 37 °C.
# Isolated papillary muscle or atrial trabecula and Purkinje fiber preparations were obtained and prepared from the right ventricle and were individually mounted in a tissue chamber with the volume of 50 ml. Each preparation was initially stimulated through a pair of platinum electrodes in contact with the preparation using rectangular current pulses of 2 ms duration. These stimuli were delivered at a constant cycle length of 1000 ms for at least 60 min allowing the preparation to equilibrate before the measurements were initiated. Transmembrane potentials were recorded using conventional glass microelectrodes, filled with 3 M KCl and having tip resistances of 5–20 MΩ, connected to the input of a high impedance electrometer (Experimetria, type 309, Budapest, Hungary) which was coupled to a dual beam oscilloscope. […] Attempts were made to maintain the same impalement throughout each experiment. In case an impalement became dislodged, adjustment was attempted, and if the action potential characteristics of the re-established impalement deviated by less than 5% from the previous measurement, the experiment continued[64]–[67]. All measurements were carried out at 37 °C.
# [2] = system: slow delayed rectifier potassium current (IKs); test: Whole-cell patch-clamp, slow delayed rectifier potassium current in dog ventricular myocytes; assay type: cell-based; settings: 10 µM, dog left ventricular myocytes
# Experimental: (§1) The effects of SZV-2649 on transmemrane ionic currents were investigated in dog cardiac myocytes after a 5-minute superfusion of the drug.
# The slow delayed rectifier potassium current (IKs) was elicited from the holding potential of -80 mV with a prepulse to -40 mV. The IKs tail current was measured at a post pulse to -40 mV after 5-second-long test pulses from − 20 mV to 50 mV using 10 mV increments at the pulsing cycle length of 10 s (see inset of Fig. 4B). The effect of SZV-2649 was investigated at the concentration of 10 µM.
# Ventricular myocytes from Beagle dogs were enzymatically dissociated as described in detail previously. […]
# (§2) The membrane currents were recorded with Axopatch-200B amplifiers (Molecular Devices, Sunnyvale, CA, USA) by means of the whole-cell configuration of the patch-clamp technique. […]
# The inward rectifier (IK1), the transient outward (Ito), the rapid (IKr) and the slow (IKs) delayed rectifier potassium currents were recorded in HEPES-buffered Tyrode’s solution. […] When IKr was recorded, IKs was inhibited by using the selective IKs blocker HMR-1556 (0.5 µM). […]
# [3] = system: L-type inward calcium current (ICaL); test: Whole-cell patch-clamp, L-type calcium current in dog ventricular myocytes; assay type: cell-based; settings: 10 µM, dog left ventricular myocytes
# Experimental: as §1
# The L-type inward calcium current (ICaL) was measured from a holding potential of -80 mV with a 40 ms prepulse to -40 mV to inactivate INa (see inset of Fig. 3B). Test pulses of 400 ms duration from − 35 mV to 55 mV were applied with a pulsing cycle length of 3 s. In the internal (pipette) solution, KCl was replaced by 125 mM CsCl to block potassium currents.
# Ventricular myocytes from Beagle dogs were enzymatically dissociated as described in detail previously. A single droplet of cell suspension was placed in a transparent recording chamber mounted on the stage of an inverted microscope (Olympus IX51, Olympus, Tokyo, Japan), and individual myocytes were allowed to settle and adhere to the chamber bottom for at least 5–10 min before superfusion was initiated and maintained by gravity. Only rod-shaped cells with clear striations were used. […]
# as §2
# The L-type calcium current (ICaL) was recorded in HEPES-buffered Tyrode’s solution supplemented with 3 mM 4-aminopyridine. […]
smiles,measurement,setting,value
"CC(N)COc1c(I)cc(C#N)cc1I.Cl (stereo not shown) [SZV-2649, 4-(2-aminopropoxy)-3,5-diiodobenzonitrile hydrochloride]",APA,[1]; 5 µM,123.8 ± 2.3 mV
same,APD50,[1]; 5 µM,113.6 ± 5.6 ms
same,APD90,[1]; 5 µM,217.4 ± 5.1 ms
same,RP,[1]; 5 µM,−84.7 ± 1.7 mV
same,Vmax,[1]; 5 µM,507.4 ± 53.4 V/s
same,APA,[1]; 10 µM,119.2 ± 3.3 mV
same,APD50,[1]; 10 µM,112.4 ± 7.9 ms
same,APD90,[1]; 10 µM,223.4 ± 5.6 ms
same,RP,[1]; 10 µM,−86.0 ± 1.1 mV
same,Vmax,[1]; 10 µM,415.0 ± 28.9 V/s
same,Vmax,[1]; […],581.1 ± 39.0 V/s
same,Effect on amplitude of IKs tail current,[2],did not change or only minimally decreased
same,Effect on magnitude of ICaL,[3],moderately but significantly decreased
